PubChem BioAssay (NCI)
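A five-concentration, 48-hour dose response in 96-well plates underlies each endpoint, interpolated linearly between surrounding concentrations. At the TGI there is no net growth.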

Tests used:
Test in all cases: NCI anticancer screen, dose series, 48 h
NCI-H226 lung = system: NCI-H226 lung
UO-31 renal = system: UO-31 renal
MDA-N = system: MDA-N
TK-10 renal = system: TK-10 renal
MCF7 breast = system: MCF7 breast
A549 NSCLC = system: A549 NSCLC
786-0 renal = system: 786-0 renal
OVCAR-5 ovarian = system: OVCAR-5 ovarian
OVCAR-4 ovarian = system: OVCAR-4 ovarian
MDA-MB-231 breast = system: MDA-MB-231 breast
OVCAR-8 ovarian = system: OVCAR-8 ovarian
CAKI-1 renal = system: CAKI-1 renal
EKVX NSCLC = system: EKVX NSCLC
CCRF-CEM leukemia = system: CCRF-CEM leukemia
A498 renal = system: A498 renal
SNB-19 CNS = system: SNB-19 CNS
PC-3 prostate = system: PC-3 prostate
HCT-116 colon = system: HCT-116 colon
SNB-75 CNS = system: SNB-75 CNS
LOX IMVI melanoma = system: LOX IMVI melanoma
SF-268 CNS = system: SF-268 CNS
NCI-H23 lung = system: NCI-H23 lung
SW-620 colon = system: SW-620 colon
ACHN renal = system: ACHN renal
HL-60(TB) leukemia = system: HL-60(TB) leukemia
KM12 colon = system: KM12 colon
K-562 leukemia = system: K-562 leukemia
BT-549 breast = system: BT-549 breast
HOP-62 NSCLC = system: HOP-62 NSCLC
SF-295 CNS = system: SF-295 CNS
RXF 393 renal = system: RXF 393 renal
SR leukemia = system: SR leukemia
U251 CNS = system: U251 CNS
OVCAR-3 ovarian = system: OVCAR-3 ovarian
M14 melanoma = system: M14 melanoma
DU-145 prostate = system: DU-145 prostate
UACC-62 melanoma = system: UACC-62 melanoma
IGROV1 ovarian = system: IGROV1 ovarian
HS 578T breast = system: HS 578T breast
MALME-3M melanoma = system: MALME-3M melanoma
UACC-257 melanoma = system: UACC-257 melanoma
HCC-2998 colon = system: HCC-2998 colon
MOLT-4 leukemia = system: MOLT-4 leukemia
NCI/ADR-RES ovarian = system: NCI/ADR-RES ovarian
SN12C renal = system: SN12C renal
RPMI-8226 leukemia = system: RPMI-8226 leukemia
MDA-MB-435 = system: MDA-MB-435
T-47D breast = system: T-47D breast
NCI-H460 lung = system: NCI-H460 lung
SK-MEL-2 melanoma = system: SK-MEL-2 melanoma
SK-MEL-5 melanoma = system: SK-MEL-5 melanoma
HCT-15 colon = system: HCT-15 colon
SK-MEL-28 melanoma = system: SK-MEL-28 melanoma
NCI-H522 lung = system: NCI-H522 lung
COLO 205 colon = system: COLO 205 colon

Measured: TGI

CN1CCC/C1=C1/C(=O)N(c2ccccc2)N=C1c1ccc[nH]1
> 100 µM: NCI-H226 lung | UO-31 renal | MDA-N | TK-10 renal | MCF7 breast | A549 NSCLC | 786-0 renal | OVCAR-5 ovarian | OVCAR-4 ovarian | MDA-MB-231 breast | OVCAR-8 ovarian | CAKI-1 renal | EKVX NSCLC | CCRF-CEM leukemia | A498 renal | SNB-19 CNS | PC-3 prostate | HCT-116 colon | SNB-75 CNS | LOX IMVI melanoma | SF-268 CNS | NCI-H23 lung | SW-620 colon | ACHN renal | HL-60(TB) leukemia | KM12 colon | K-562 leukemia | BT-549 breast | HOP-62 NSCLC | SF-295 CNS | RXF 393 renal | SR leukemia | U251 CNS | OVCAR-3 ovarian | M14 melanoma | DU-145 prostate | UACC-62 melanoma | IGROV1 ovarian | HS 578T breast | MALME-3M melanoma | UACC-257 melanoma | HCC-2998 colon | MOLT-4 leukemia | NCI/ADR-RES ovarian | SN12C renal | RPMI-8226 leukemia | MDA-MB-435 | T-47D breast | NCI-H460 lung | SK-MEL-2 melanoma | SK-MEL-5 melanoma | HCT-15 colon | SK-MEL-28 melanoma | NCI-H522 lung | COLO 205 colon
